We go through one molecule from patent publication US20070286892A1, “COMPOSITIONS AND METHODS FOR PREVENTING OR REDUCING POSTOPERATIVE ILEUS AND GASTRIC STASIS IN MAMMALS” (priority 2006, published 2007).

Structures are written as SMILES.

The subject of one data set is adhesions. To be noted: local delivery in gel (NaCMC) formulations at the surgical site; cited from earlier work.
Data set [1] concerns gastric emptying and intestinal motility. The data set is described as follows: Charcoal transit model of postoperative ileus after abdominal surgery with cecal manipulation. The format is in vivo, rat. As to conditions: charcoal distance 4 h after oral meal, percent of full intestinal length, male Sprague Dawley rats. The text has this: The charcoal transit model is an accetable and established model to study the effects of abdominal surgery on intestinal motility. We followed the procedure as described by De Winter et al. (1997) (Reference: Effect of adrenergic and nitrergic blockade on experimental ileus in rats. British Journal of Pharmacology (1997) 120, 464-468. Benedicte Y. De Winter, Guy E. Boeckxstaens, Joris G. De Man, Tom G. Moreels, Arnold G. Herman & Paul A. Pelckmans). The model simulates the abdominal procedure in human and tests for gastric emptying and intestinal motility by the transfer of a charcoal meal fed to the animals.
Male Sprague Dawley rats, weighing 250-275 g (8 in group) were anesthetized with a xylazine/ketamine cocktail, injected IM, the abdomen was shaved and disinfected with alcohol and Betadyne. A 2.5 cm incision was made from the xyphoid process caudally. The intestinal contents was exteriorized onto wet gauze. The cecum was manipulated gently for 1 minute. The abdominal contents were replaced, the treatment was applied and the body wall closed with 4-0 PDS for the fascia and muscle layers. The skin was closed with wound clips. Treatment groups included two control groups, surgery (incision only) and naïve, and […], high and low dose of Tranilast gel, high and low dose of Tranilast ORC, as well as gel alone and ORC alone. 8 rats were included in each group with a total of 64 rats. The high and low dose Tranilast gel and gel alone treatments were prepared as described in Example 1. The high and low dose Tranilast ORC and ORC alone treatments were prepared as described in Example 2.
The rats were treated with an oral solution of charcoal (10%) in acacia gum (2%). Four hours following oral administration rats were euthanized with Euthasole. The intestines were exteriorized and the distance traveled by the charcoal meal was measured as well as the full length of the intestines (from the pylorus through the anus). Results are expressed as percent of distance traveled relative to the full length of the intestines.

`COc1ccc(/C=C/C(=O)Nc2ccccc2C(=O)O)cc1OC` [Tranilast]: in the data set with adhesions, the “Effects on wound healing at the surgical sites” value is “no obvious effects on wound healing”. The “% GI Transfer” value in data set [1] (Gel preparation (3% Na-CMC), Tranilast high dose 18.0 mg applied locally) was 93.04%; in data set [1] (Gel preparation (3% Na-CMC), Tranilast low dose 1.8 mg applied locally), 90.68%; in data set [1] (ORC preparation (INTERCEED mesh), Tranilast high dose 18.0 mg applied locally), 62.18%; in data set [1] (ORC preparation (INTERCEED mesh), Tranilast low dose 1.8 mg applied locally) it was 46.11%.
